# In ChEMBL document CHEMBL1201862, “PubChem BioAssay data set” (2004):
# Active and inactive are the calls of the source.
# Legend:
# Format in all cases: functional
# [1] = biological target: T1, Sentrin-specific protease 6 (Homo sapiens, UniProt Q9GZR1); test: SAR Analysis of small molecule inhibitors of Sentrin-specific protease 6 (SENP6) using a Luminescent assay. [Related pubchem assays (depositor defined):AID2582, AID2599]
# T1 sequence (Q9GZR1 whole entry): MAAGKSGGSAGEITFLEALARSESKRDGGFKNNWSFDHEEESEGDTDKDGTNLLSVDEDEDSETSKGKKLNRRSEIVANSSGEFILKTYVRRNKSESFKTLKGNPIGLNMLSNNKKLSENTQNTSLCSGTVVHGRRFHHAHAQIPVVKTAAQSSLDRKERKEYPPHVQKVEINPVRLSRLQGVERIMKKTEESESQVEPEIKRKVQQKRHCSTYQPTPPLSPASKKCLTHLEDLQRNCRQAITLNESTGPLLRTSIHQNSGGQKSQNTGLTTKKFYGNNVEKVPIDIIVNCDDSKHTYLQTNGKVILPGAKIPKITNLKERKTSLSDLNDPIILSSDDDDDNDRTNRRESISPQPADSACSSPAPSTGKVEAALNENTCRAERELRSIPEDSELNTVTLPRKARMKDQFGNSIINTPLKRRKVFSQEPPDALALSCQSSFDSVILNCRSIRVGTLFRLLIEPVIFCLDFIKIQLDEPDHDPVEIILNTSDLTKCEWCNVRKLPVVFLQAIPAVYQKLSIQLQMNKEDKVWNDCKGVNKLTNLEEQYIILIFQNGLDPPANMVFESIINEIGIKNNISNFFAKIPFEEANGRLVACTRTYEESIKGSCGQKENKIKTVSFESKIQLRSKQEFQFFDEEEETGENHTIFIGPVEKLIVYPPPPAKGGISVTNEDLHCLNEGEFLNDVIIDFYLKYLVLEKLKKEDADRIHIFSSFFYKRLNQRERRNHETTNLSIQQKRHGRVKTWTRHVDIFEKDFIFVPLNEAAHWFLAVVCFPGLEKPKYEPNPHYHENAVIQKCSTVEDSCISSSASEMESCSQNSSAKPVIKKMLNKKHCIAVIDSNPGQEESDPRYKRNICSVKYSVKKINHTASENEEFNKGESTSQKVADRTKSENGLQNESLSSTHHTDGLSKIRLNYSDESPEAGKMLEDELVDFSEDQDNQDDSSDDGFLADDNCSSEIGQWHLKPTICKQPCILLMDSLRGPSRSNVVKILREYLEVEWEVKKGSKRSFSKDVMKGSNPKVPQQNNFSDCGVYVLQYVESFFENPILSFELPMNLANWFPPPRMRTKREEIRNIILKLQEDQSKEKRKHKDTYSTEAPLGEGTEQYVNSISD
# [2] = biological target: cGMP-dependent protein kinase 1 (Homo sapiens, UniProt Q13976);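 further: value from a kinome panel screen with PRKG1 as the panel member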
# [3] = biological target: 5'-AMP-activated protein kinase catalytic subunit alpha-1 (Homo sapiens, UniProt Q13131)
# [4] = biological target: Serine/threonine-protein kinase PLK4 (Homo sapiens, UniProt O00444);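 further: PLK4 measured as one member of a kinome-wide kinase profiling panel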
# [5] = biological target: Cyclin-dependent kinase 2 (Homo sapiens, UniProt P24941);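 further: CDK2 measured as one member of a broad kinome profiling panel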
# [6] = biological target: SRSF protein kinase 1 (Homo sapiens, UniProt Q96SB4);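 further: measured as one member of a kinome-wide kinase profiling panel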
# [7] = biological target: Serine/threonine-protein kinase pim-1 (Homo sapiens, UniProt P11309)
# [8] = biological target: Mitogen-activated protein kinase 9 (Homo sapiens, UniProt P45984);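 further: value from a kinome panel profiling assay, MAPK9 panel entry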
# [9] = biological target: Testis-specific serine/threonine-protein kinase 1 (Homo sapiens, UniProt Q9BXA7)
# [10] = biological target: Serine/threonine-protein kinase pim-3 (Homo sapiens, UniProt Q86V86);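 further: value obtained as one member of a broad kinase panel profiling effort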
# [11] = biological target: Casein kinase I isoform delta (Homo sapiens, UniProt P48730);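 further: measured as one member (CSNK1D) of a kinome panel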
# [12] = biological target: Tyrosine-protein kinase ABL1 (Homo sapiens, UniProt P00519)
# [13] = biological target: MAP kinase-interacting serine/threonine-protein kinase 2 (Homo sapiens, UniProt Q9HBH9)
# [14] = biological target: Ephrin type-A receptor 2 (Homo sapiens, UniProt P29317);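 further: EPHA2 tested as one member of a kinome-wide kinase panel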
# [15] = biological target: Misshapen-like kinase 1 (Homo sapiens, UniProt Q8N4C8);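 further: kinome panel screen with MINK as the panel member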
# [16] = biological target: Protein kinase C iota type (Homo sapiens, UniProt P41743);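 further: measured within a kinome-wide kinase panel, PRKCI as panel member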
# [17] = biological target: Dual specificity tyrosine-phosphorylation-regulated kinase 1B (Homo sapiens, UniProt Q9Y463); test: Navigating the Kinome. Panel member name: DYRK1B
# [18] = biological target: Interleukin-1 receptor-associated kinase 1 (Homo sapiens, UniProt P51617);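 further: IRAK1 tested as one member of a kinome panel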
# [19] = biological target: Interleukin-1 receptor-associated kinase 4 (Homo sapiens, UniProt Q9NWZ3)
# [20] = biological target: Rho-associated protein kinase 1 (Homo sapiens, UniProt Q13464);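 further: measured within a broad kinome-wide panel profiling many kinases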
# [21] = biological target: Cyclin-dependent kinase 1 (Homo sapiens, UniProt P06493);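 further: Kinome-wide panel profiling, with the target listed as panel member CDC2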
# [22] = biological target: Serine/threonine-protein kinase Nek2 (Homo sapiens, UniProt P51955)
# [23] = biological target: Cyclin-dependent kinase 9 (Homo sapiens, UniProt P50750);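 further: value from the CDK9 entry of a kinome-spanning kinase panel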
# [24] = biological target: Macrophage colony-stimulating factor 1 receptor (Homo sapiens, UniProt P07333);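 further: value comes from the Navigating the Kinome screening panel, CSF1R member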
# [25] = biological target: Calcium/calmodulin-dependent protein kinase type II subunit alpha (Homo sapiens, UniProt Q9UQM7); test: Navigating the Kinome. Panel member name: CAMK2A
# [26] = biological target: Tyrosine-protein kinase FRK (Homo sapiens, UniProt P42685);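 further: FRK tested as one member of a kinome panel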
# Chain of Ephrin type-A receptor 2 (P29317 whole entry): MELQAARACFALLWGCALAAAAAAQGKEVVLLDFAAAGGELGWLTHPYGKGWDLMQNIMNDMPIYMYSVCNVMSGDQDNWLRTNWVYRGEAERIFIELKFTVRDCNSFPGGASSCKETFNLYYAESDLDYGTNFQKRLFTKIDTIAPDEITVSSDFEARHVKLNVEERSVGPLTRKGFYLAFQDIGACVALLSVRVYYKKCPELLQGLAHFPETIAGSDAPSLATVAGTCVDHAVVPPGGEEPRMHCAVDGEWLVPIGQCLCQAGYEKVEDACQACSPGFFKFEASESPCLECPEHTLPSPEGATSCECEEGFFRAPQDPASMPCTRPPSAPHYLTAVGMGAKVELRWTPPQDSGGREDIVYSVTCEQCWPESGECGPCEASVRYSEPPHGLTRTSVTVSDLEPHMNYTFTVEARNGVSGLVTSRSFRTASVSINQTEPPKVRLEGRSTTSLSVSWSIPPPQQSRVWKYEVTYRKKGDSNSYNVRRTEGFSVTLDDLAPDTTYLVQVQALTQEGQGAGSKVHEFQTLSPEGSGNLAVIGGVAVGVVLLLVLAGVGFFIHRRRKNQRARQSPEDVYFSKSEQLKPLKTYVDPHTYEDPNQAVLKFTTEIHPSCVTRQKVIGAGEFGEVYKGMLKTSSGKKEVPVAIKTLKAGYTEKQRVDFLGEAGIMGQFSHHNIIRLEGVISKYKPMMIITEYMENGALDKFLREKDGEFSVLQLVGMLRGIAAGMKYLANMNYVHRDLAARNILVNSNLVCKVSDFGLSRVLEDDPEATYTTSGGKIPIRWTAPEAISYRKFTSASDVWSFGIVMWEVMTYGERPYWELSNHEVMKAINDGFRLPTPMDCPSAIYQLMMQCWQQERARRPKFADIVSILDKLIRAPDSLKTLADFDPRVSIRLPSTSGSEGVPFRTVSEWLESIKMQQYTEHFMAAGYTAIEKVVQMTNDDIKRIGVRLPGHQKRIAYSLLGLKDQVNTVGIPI
# Chain of Tyrosine-protein kinase ABL1 (P00519 whole entry): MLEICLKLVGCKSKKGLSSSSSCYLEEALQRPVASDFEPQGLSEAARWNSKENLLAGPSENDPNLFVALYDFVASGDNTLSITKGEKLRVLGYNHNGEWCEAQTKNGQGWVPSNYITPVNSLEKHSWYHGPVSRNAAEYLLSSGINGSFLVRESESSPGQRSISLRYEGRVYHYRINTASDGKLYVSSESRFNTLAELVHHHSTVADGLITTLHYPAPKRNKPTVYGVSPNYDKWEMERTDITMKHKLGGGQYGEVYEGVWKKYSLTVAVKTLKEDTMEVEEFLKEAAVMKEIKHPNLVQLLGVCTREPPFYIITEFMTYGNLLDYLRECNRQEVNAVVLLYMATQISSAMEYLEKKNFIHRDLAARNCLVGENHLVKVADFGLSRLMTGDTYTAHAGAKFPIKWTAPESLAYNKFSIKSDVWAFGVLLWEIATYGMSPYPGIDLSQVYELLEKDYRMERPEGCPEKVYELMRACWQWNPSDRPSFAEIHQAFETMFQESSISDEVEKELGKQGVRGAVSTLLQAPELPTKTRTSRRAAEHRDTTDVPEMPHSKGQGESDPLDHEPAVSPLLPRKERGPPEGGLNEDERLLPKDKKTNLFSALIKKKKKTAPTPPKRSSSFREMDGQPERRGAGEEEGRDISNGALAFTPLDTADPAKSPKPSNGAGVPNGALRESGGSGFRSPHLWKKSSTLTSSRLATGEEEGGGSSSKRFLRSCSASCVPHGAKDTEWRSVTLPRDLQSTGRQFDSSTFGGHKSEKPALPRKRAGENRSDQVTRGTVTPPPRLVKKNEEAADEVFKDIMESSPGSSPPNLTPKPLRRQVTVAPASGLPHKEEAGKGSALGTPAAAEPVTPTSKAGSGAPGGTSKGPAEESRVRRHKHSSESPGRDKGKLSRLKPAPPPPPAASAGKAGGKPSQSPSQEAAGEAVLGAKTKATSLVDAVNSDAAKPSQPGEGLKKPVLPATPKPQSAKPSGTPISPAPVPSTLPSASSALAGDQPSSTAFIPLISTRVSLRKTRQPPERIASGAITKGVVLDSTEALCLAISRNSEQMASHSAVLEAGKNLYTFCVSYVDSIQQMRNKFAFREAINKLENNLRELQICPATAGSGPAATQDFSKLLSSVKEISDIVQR
# Chain of 5'-AMP-activated protein kinase catalytic subunit alpha-1 (Q13131 whole entry): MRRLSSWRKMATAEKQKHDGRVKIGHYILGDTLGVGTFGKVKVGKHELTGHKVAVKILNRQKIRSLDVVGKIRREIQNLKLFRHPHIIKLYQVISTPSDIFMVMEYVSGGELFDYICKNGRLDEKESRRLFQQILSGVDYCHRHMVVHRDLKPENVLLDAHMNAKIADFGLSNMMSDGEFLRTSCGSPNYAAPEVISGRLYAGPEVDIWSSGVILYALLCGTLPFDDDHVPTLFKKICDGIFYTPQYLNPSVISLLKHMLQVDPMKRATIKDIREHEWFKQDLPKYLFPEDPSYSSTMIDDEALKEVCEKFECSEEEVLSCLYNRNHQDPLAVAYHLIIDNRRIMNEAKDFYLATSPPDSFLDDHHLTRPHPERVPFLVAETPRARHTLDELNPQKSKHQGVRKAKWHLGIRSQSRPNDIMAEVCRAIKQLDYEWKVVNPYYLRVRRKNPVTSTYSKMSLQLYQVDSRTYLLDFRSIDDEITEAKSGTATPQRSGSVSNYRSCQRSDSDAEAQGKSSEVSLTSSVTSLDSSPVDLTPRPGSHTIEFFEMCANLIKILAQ
# Chain of Macrophage colony-stimulating factor 1 receptor (P07333 whole entry): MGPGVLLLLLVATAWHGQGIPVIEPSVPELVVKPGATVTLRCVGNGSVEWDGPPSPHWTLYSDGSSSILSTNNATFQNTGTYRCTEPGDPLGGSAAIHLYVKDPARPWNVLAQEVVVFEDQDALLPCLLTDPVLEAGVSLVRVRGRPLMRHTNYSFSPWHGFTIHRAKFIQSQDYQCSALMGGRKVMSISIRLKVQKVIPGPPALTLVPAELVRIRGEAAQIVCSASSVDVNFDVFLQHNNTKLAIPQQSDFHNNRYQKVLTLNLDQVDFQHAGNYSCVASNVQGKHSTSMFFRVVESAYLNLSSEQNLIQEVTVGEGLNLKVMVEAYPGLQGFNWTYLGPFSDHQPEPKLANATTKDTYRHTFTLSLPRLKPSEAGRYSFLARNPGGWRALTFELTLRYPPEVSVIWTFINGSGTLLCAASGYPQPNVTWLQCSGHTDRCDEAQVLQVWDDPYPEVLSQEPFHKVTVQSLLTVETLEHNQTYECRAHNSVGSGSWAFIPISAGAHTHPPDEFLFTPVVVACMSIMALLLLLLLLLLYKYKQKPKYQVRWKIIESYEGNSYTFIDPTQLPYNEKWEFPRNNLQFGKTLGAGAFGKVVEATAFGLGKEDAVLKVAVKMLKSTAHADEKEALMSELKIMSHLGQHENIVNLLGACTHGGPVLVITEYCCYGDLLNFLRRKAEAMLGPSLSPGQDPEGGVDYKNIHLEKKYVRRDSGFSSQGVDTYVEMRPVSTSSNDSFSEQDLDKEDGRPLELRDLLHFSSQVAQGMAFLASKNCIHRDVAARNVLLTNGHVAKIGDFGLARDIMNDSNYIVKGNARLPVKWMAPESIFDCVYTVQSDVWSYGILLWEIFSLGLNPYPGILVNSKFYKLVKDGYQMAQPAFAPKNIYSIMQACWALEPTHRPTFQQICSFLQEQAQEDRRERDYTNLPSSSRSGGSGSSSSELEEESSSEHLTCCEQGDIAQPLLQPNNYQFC
# Chain of MAP kinase-interacting serine/threonine-protein kinase 2 (Q9HBH9 whole entry): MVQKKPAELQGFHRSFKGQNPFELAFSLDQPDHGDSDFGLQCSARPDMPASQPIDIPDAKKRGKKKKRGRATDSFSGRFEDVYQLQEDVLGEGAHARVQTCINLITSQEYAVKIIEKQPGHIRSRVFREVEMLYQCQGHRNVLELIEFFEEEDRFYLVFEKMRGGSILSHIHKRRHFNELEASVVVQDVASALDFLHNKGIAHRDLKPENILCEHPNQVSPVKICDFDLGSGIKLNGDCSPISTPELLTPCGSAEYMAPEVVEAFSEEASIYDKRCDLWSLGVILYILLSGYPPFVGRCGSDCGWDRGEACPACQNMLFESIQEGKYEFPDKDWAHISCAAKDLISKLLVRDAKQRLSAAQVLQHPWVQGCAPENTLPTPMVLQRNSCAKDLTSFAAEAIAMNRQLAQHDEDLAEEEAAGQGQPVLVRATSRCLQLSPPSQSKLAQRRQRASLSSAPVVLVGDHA
# Chain of Serine/threonine-protein kinase Nek2 (P51955 whole entry): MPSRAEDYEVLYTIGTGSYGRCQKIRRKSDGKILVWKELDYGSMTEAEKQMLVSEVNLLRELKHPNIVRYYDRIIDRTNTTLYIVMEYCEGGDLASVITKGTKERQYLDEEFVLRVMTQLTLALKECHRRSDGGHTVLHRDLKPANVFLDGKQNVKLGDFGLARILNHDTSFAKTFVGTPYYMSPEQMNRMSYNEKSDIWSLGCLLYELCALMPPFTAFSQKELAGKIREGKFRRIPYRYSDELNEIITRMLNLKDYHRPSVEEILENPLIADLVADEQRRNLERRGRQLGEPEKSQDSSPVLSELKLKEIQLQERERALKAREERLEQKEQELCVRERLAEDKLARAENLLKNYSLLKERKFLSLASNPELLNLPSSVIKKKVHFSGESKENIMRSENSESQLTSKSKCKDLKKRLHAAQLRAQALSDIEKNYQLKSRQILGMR
# Chain of Cyclin-dependent kinase 9 (P50750 whole entry): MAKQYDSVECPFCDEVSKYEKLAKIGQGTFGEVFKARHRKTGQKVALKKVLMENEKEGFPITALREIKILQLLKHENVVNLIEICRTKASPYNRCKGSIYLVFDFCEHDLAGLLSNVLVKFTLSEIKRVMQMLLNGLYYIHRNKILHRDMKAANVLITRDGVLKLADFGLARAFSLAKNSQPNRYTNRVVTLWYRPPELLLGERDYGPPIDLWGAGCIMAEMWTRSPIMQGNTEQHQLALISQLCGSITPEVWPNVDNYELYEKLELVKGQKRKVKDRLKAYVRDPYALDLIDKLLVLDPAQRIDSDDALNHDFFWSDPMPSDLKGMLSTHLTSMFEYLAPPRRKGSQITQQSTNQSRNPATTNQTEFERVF
structure (smiles),measurement,setting,value
COc1cc(Br)c(C(=O)c2nccc3cc(OC)c(OC)cc23)cc1OC,IC50,[1],14300 nM (active)
CC(N)C1CCC(C(=O)Nc2ccnc3[nH]ccc23)CC1 (stereo unspecified),Ki,[2],631 nM (active)
same,Ki,[3],> 2510 nM (inactive)
same,Ki,[4],1580 nM (active)
same,Ki,[5],1000 nM (active)
same,Ki,[6],> 7940 nM (inactive)
same,Ki,[7],> 6310 nM (inactive)
same,Ki,[8],> 3980 nM (inactive)
same,Ki,[9],> 1580 nM (inactive)
same,Ki,[10],> 7940 nM (inactive)
same,Ki,[11],> 7940 nM (inactive)
same,Ki,[12],> 631 nM (inactive)
same,Ki,[13],2000 nM (active)
same,Ki,[14],> 3160 nM (inactive)
same,Ki,[15],3160 nM (active)
same,Ki,[16],3980 nM (active)
same,Ki,[17],158 nM (active)
same,Ki,[18],7940 nM (active)
same,Ki,[19],2510 nM (active)
same,Ki,[20],158 nM (active)
same,Ki,[21],631 nM (active)
same,Ki,[22],> 10000 nM (inactive)
same,Ki,[23],> 1580 nM (inactive)
same,Ki,[24],> 2510 nM (inactive)
same,Ki,[25],3980 nM (active)
same,Ki,[26],> 2510 nM (inactive)
